Counter-ions that a name gives are not always drawn.

`COc1cc(Cl)nnc1NC1CCN(Cc2cc(F)cc(C(F)(F)F)c2)CC1` came in with a melting point of 121.5 °C. In the case of `COc1cc(Cl)nnc1NC1CCN(Cc2cc(F)c(F)c(F)c2)CC1` it was 150.7 °C; in that of `COc1cc(C(F)(F)F)nnc1NC1CCN(Cc2cccc(C(F)(F)F)c2)CC1` (as salt: hydrochloride), 211.3 °C. As to `COc1cc(Cl)nnc1NC1CCN(Cc2ccc(F)c(F)c2)CC1`, the melting point was determined as 130.5 °C.

One may read the melting point as the temperature, or range, at which the solid turns liquid.

For the origin of these results see patent US8906921B2, “4-alkoxypyridazine derivatives as fast dissociating dopamine 2 receptor antagonists” (Janssen Pharmaceutica NV, priority 2007, dated 2014).
